Data: US7261876B2, “Multivalent constructs for therapeutic and diagnostic applications” (Bracco International BV, priority 2002, dated 2007)
Entries after “also recorded” stand apart in the source; their conditions may differ.

Experiments:
KDR/VEGF complex = target: T1, KDR/VEGF complex (Homo sapiens, UniProt P35968); test: Cell based assay for binding of KDR/VEGF complex binders (peptide-125I-streptavidin complexes); settings: in the presence of VEGF
T1 construct: Both PCR products were digested with Not1 and ligated together to create the full-length receptor; V5-His (encoded by the vector); expressed in transfected cells; host or cells: 293H cells, transiently transfected; VEGF added exogenously
Text: Furthermore, these peptides, as well as other peptides which bind KDR/VEGF complex may advantageously be included in heteromultimers of the invention.

[1] = target: T2, KDR-expressing 293H cells (Homo sapiens, UniProt P35968); test: Bead-binding assay, peptide-conjugated fluorescent beads; assay type: cell-based; settings: Neutravidin-coated beads, 40% FBS
T2 construct: Both PCR products were digested with Not1 and ligated together to create the full-length receptor; V5-His (encoded by the vector); expressed in transfected cells; host or cells: 293H cells (Invitrogen cat. # 11631), transient lipofectamine 2000 transfection
Protocol: As a positive control, biotinylated anti-KDR antibody was incubated with the Neutravidin-coated beads as above, except that 0.03 mg of the biotinylated antibody preparation in PBS (Gibco 14190-136) was used instead of peptide solution. Beads can be stored at 4° C. until needed for up to 1 week.
293H cells were transfected using the protocol described in Example 6. Transfection was done in black/clear 96-well plates (Becton Dickinson, cat. # 354640). The cells in one half of the plate (48 wells) were mock-transfected (with no DNA) and those in the other half of the plate were transfected with KDR cDNA. The cells were 80–90% confluent at the time of transfection and completely confluent the next day, at the time of the assay; otherwise the assay was aborted.
From the above bead preparations, 0.12 mL was spun for 10 minutes at 2000 rpm in a microcentrifuge at room temperature. The supernatant was removed and 0.06 mL of MES pH 6.0 was added. Each bead solution was then vortexed and sonicated in a water bath 15 min. To 1.47 mL of DMEM, high glucose (GIBCO 11965-084) with 1×MEM Non-Essential Amino Acids Solution (NEAA) (GIBCO 11140-050) and 40% FBS (Hyclone SH30070.02) 0.03 mL of the sonicated bead preparations was added. 96-well plates seeded with 293H cells which have been mock-transfected in columns 1 to 6, and KDR-transfected in columns 7 to 12 (as described above), were drained and washed once with DMEM, high glucose with 1×NEAA and 40% FBS. To each well was added 0.1 mL of bead solution, six wells per bead preparation. […] After draining, 0.1 mL of PBS was added per well. The plates were then read on a Packard FluoroCount fluorometer at excitation 550 nm/emission 620 nm. Unconjugated Neutravidin beads were used as a negative control while beads conjugated with a biotinylated anti-KDR antibody were used as the positive control for the assay.
To calculate the number of beads bound per well, a standard curve with increasing numbers of the same fluorescent beads was included in each assay plate. The standard curve was used to calculate the number of beads bound per well based on the fluorescence intensity of each well.

[2] = target: T3, KDR expressed by transfected 293H cells (Homo sapiens, UniProt P35968); test: Competition with 125I-labeled VEGF for binding to KDR-transfected 293H cells
T3 construct: Both PCR products were digested with Not1 and ligated together to create the full-length receptor; V5-His (encoded by the vector); expressed in transfected cells; host or cells: 293H cells (Invitrogen cat. # 11631), transient lipofectamine 2000 transfection
Protocol: Once prepared, the solutions were kept on ice until ready to use.
Cells were used 24 h after transfection, and to prepare the cells for the assay, they were washed 3 times with room temperature M199 medium and placed in the refrigerator. […] After incubating at 4° C. for 2 h, the plates were washed 5 times with cold binding buffer, gently blotted dry and checked under a microscope for cell loss. 100 μL of solubilizing solution (2% Triton X-100, 10% Glycerol, 0.1% BSA) was added to each well and the plates were incubated at room temperature for 30 minutes. The solubilizing solution in each well was mixed by pipeting up and down, and transferred to 1.2 mL tubes. Each well was washed twice with 100 μL of solubilizing solution and the washes were added to the corresponding 1.2 mL tube.
After washing the cells, the bound radioactivity was quantitated on a gamma counter.

[3] = tested on: VEGF-induced migration of HUVECs; test: HUVEC migration/invasion assay; assay type: cell-based, human
Protocol: After 22 hours, quantitation of cell migration/invasion was achieved by post-labeling cells in the insert plates with a fluorescent dye and measuring the fluorescence of the invading/migrating cells in a fluorescent plate reader. The VEGF-induced migration was calculated by subtracting the migration that occurred when only basal medium was placed in the lower chamber of the wells.
Serum-starved HUVECs were placed, 100,000 cells per well, into the upper chambers of BD fibronectin-coated FluoroBlok 24-well insert plates. […] After 22 hours, quantitation of cell migration/invasion was achieved by post-labeling cells in the insert plates with a fluorescent dye and measuring the fluorescence of the invading/migrating cells in a fluorescent plate reader. VEGF-stimulated migration was derived by subtracting the basal migration measured in the absence of VEGF.
Serum-starved HUVECs were placed, 100,000 cells per well, into the upper chambers of BD fibronectin-coated FluoroBlok 24-well insert plates. […] After 22 hours, quantitation of cell migration/invasion was achieved by post-labeling cells in the insert plates with a fluorescent dye and measuring the fluorescence of the invading/migrating cells in a fluorescent plate reader. […]

KDR = target: T4, KDR (Homo sapiens, UniProt P35968); test: VEGF-induced KDR receptor activation (phosphorylation) assay in HUVECs; assay type: cell-based; settings: 10 μM
T4 construct: host or cells: HUVEC
Text: Human umbilical vein endothelial cells (HUVECs) (Biowhittaker Cat No. CC-2519) were obtained frozen on dry ice and stored in liquid nitrogen until thawing. These cells were thawed, passaged, and maintained as described by the manufacturer in EGM-MV medium (Biowhittaker Cat No. CC-3125). Cells seeded into 100 mm dishes were allowed to become confluent, then cultured overnight in basal EBM medium lacking serum (Biowhittaker Cat No. CC-3121). The next morning, the medium in the dishes was replaced with 10 mL fresh EBM medium at 37° C. containing either no additive (negative control), 5 ng/mL VEGF (Calbiochem Cat No. 676472 or Peprotech Cat No. 100-20) (positive control), or 5 ng/mL VEGF plus the indicated concentration of the KDR-binding peptide (prepared as described above). In some cases, a neutralizing anti-KDR antibody (Cat No. AF357, R&D Systems) was used as a positive control inhibitor of activation. In such cases, the antibody was pre-incubated with the test cells for 30 min at 37° C. prior to the addition of fresh medium containing both VEGF and the antibody. After incubating the dishes 5 min in a 37° C. tissue culture incubator they were washed three times with ice-cold Dulbecco's phosphate buffered saline (D-PBS) containing calcium and magnesium and placed on ice without removing the last 10 mL of D-PBS. The first dish of a set was drained and 0.5 mL of Triton lysis buffer was added (20 mM Tris base pH 8.0, 137 mM NaCl, 10% glycerol, 1% Triton X-100, 2 mM EDTA (ethylenediaminetetraacetic acid), 1 mM PMSF (phenylmethylsulfonylfluoride), 1 mM sodium orthovanadate, 100 mM NaF, 50 mM sodium pyrophosphate, 10 μg/mL leupeptin, 10 μg/mL aprotinin). The cells were quickly scraped into the lysis buffer using a cell scraper (Falcon, Cat No. 353087), dispersed by pipeting up and down briefly, and the resulting lysate was transferred to the second drained dish of the pair. Another 0.5 mL of lysis buffer was used to rinse out the first dish then transferred to the second dish, which was then also scraped and dispersed. The pooled lysate from the two dishes was transferred to a 1.5 mL Eppindorf tube. The above procedure was repeated for each of the controls and test samples (KDR-binding peptides), one at a time. The lysates were stored on ice until all the samples had been processed. At this point samples were either stored at −70° C. or processed to the end of the assay without interruption.
The lysates, either freshly prepared or frozen and thawed, were precleared by adding 20 μL of protein A-sepharose beads (Sigma 3391, preswollen in D-PBS), washed three times with a large excess of D-PBS, reconstituted with 6 mL D-PBS to generate a 50% slurry) and rocked at 4° C. for 30 min. The beads were pelleted by centrifugation for 2 min in a Picofuge (Stratgene, Cat No. 400550) at 2000×g and the supernatants transferred to new 1.5 mL tubes. 20 μg of anti-Flk-1 antibody (Santa Cruz Biotechnology, Cat No. sc-504) was added to each tube, and the tubes were incubated overnight (16–18 h) at 4° C. on a rotator to immunoprecipitate KDR. The next day 40 μL of protein A-sepharose beads were added to the tubes, which were then incubated at 4° C. for 1 h on a rotator. The beads in each tube were subsequently washed three times by centrifuging for 2 min in a Picofuge, discarding the supernatant, and dispersing the beads in 1 mL freshly added TBST buffer (20 mM Tris base pH 7.5, 137 mM NaCl, and 0.1% Tween 20). After centrifuging and removing the liquid from the last wash, 40 μL of Laemmli SDS-PAGE sample buffer (Bio-Rad, Cat No. 161-0737) was added to each tube and the tubes were capped and boiled for 5 min. After cooling, the beads in each tube were pelleted by centrifuging and the supernatants containing the immunoprecipitated KDR were transferred to new tubes and used immediately or frozen and stored at −70° C. for later analysis.
Detection of phosphorylated KDR as well as total KDR in the immunoprecipitates was carried out by immunoblot analysis. […]

Soluble KDR receptor = target: T5, Soluble KDR receptor (Homo sapiens, UniProt P35968); test: Surface plasmon resonance (Biacore 3000) of P9/P10 heterodimers; assay type: binding
T5 construct: Soluble KDR receptor was cross-linked to the dextran surface of a CM5 sensor chip

KDR transfected cells = target: T6, KDR transfected cells (Homo sapiens, UniProt P35968); test: Competition of free peptides with P5-XB/avidin HRP complex (Experiment E); assay type: binding; settings: P5-XB/avidin HRP 3.33 nM; free peptide 0–[…]
T6 construct: Both PCR products were digested with Not1 and ligated together to create the full-length receptor; V5-His (encoded by the vector); expressed in transfected cells; host or cells: 293H cells (Invitrogen cat. # 11631), transient lipofectamine 2000 transfection
Text: If the peptides bind to the same site on KDR, they would likely compete with each other for binding to KDR, whereas if the peptides bind to different sites, there should be no competition between the peptides for binding to KDR.

T1 sequence (P35968 20-1356): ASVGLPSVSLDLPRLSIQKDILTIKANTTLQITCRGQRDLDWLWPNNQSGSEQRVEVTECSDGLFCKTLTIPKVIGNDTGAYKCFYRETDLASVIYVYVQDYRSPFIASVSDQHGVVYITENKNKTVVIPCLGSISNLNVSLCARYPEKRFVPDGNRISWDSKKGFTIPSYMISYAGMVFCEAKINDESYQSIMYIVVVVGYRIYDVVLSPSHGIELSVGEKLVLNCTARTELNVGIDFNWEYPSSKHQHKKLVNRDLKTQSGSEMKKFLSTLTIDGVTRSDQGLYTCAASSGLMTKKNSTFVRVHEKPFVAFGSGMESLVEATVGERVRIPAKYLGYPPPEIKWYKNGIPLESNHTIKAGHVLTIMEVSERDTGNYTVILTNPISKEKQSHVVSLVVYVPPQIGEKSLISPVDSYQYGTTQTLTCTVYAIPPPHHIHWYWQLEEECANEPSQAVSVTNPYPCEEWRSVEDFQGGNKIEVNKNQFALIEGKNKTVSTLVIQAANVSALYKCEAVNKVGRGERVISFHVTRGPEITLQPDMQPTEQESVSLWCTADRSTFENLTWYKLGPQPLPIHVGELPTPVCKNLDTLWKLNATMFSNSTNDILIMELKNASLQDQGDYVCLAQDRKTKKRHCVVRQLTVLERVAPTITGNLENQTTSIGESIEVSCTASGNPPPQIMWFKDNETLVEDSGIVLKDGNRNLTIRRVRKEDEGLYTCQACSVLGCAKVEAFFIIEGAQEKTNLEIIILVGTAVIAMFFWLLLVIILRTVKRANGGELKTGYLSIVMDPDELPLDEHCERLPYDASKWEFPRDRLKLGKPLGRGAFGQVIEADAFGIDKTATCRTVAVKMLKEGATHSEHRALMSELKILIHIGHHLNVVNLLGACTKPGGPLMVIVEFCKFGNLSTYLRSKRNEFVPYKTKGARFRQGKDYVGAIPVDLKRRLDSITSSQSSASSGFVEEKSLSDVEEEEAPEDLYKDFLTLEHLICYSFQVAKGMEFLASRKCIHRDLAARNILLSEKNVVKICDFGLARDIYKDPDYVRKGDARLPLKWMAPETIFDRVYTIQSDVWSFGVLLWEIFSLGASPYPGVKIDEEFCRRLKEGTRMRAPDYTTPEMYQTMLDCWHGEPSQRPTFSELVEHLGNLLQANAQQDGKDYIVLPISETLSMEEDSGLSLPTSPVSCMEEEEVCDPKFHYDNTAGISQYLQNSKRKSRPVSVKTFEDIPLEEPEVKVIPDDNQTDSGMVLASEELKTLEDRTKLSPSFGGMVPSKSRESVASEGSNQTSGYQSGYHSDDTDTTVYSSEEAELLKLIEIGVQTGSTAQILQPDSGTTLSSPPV
T1 sequence (P15692 27-191 isoform P15692-4 partner): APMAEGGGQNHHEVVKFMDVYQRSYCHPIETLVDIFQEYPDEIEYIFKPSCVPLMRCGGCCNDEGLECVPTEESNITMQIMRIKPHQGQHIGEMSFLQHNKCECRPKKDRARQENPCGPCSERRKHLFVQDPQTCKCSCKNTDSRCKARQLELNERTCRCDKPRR
T3 sequence (P35968 20-1356): as the sequence (P35968 20-1356) above
T2 sequence (P35968 20-1356): as above
T5 sequence (P35968 20-764 limits assumed): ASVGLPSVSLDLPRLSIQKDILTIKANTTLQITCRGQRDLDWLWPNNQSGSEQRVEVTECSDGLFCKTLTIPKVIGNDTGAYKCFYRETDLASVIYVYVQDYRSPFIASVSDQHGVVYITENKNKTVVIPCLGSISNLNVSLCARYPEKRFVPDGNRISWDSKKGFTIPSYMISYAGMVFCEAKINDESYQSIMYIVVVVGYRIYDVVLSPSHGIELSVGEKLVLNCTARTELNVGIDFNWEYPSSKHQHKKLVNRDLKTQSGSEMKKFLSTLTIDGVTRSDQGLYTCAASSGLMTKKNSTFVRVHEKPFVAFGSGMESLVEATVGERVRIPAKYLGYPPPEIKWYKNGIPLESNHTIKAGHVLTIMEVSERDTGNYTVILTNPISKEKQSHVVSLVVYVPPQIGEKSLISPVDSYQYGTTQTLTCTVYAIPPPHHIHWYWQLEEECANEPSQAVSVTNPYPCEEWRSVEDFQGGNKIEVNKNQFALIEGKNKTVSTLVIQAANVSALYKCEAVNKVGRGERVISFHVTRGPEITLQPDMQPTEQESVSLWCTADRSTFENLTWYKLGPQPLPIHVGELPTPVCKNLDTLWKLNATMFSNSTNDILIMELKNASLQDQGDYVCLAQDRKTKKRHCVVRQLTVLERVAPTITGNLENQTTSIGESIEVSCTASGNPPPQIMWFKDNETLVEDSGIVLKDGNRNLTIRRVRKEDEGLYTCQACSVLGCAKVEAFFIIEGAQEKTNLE
T6 sequence (P35968 20-1356): as the sequence (P35968 20-1356) above
T4 sequence (P35968 20-1356): as above

Compound: Ac-AGPGPCKGYMPHQCWYMGTGGGK(Biotin-JJ)-NH2 [P30-XB]
- specific binding of peptide-125I-streptavidin complex (KDR-mock) (KDR/VEGF complex): specifically bound to KDR-transfected 293H cells; also recorded: showed specific binding

Compound: Ac-AGPKWC*EEDWYYC*MITGT-GGGK-(Biotin)-NH2 [P5-B]
- binding of ligand-coated fluorescent beads to KDR-transfected vs mock-transfected cells [1]: did not bind to the KDR-transfected cells significantly more than to mock-transfected cells

Compound: Ac-ERVTTCWPGEYGGVECYSVAY-NH2 (cysteine pairing not given here) [PG-1, reference compound]
- competition with 125I-VEGF for binding to KDR-transfected cells [2]: competed about equally well
- VEGF-stimulated migration ([3]; up to 62.5 nM): had no effect on VEGF-stimulated migration

Compound: AQAFPRFGGDDYWIQQYLRYTDGG [P10]
- inhibition of KDR activation (KDR): clearly able to partially block the VEGF-induced activation of KDR
- kd,1 (Soluble KDR receptor): 0.45 s⁻¹

Compound: Ac-GDSRVC*WEDSWGGEVC*FRYDP-GGGK-(Biotin)-NH2 [P6-B]
- binding of ligand-coated fluorescent beads to KDR-transfected vs mock-transfected cells [1]: showed greater binding to KDR-transfected cells

Compound: Ac-AGPKWC*EEDWYYC*MITGTGGGK-(Biotin-JJ-)-NH2 [P5-XB]
- binding of ligand-coated fluorescent beads to KDR-transfected vs mock-transfected cells [1]: Specific binding to KDR was detected
- percentage inhibition of 125I-labeled VEGF binding ([2]; 0.3 μM peptide): 24.41±8.43%
- percentage inhibition of 125I-labeled VEGF binding ([2]; 30 μM peptide): 47.95±5.09%
- competition with P5-XB/avidin HRP solution for binding (KDR transfected cells): does compete

Compound: Ac-GDSRVC*WEDSWGGEVC*FRYDPGGGK-(Biotin-JJ-)-NH2 [P6-XB]
- competition with P5-XB/avidin HRP solution for binding (KDR transfected cells): do not compete

Compound: Ac-AGMPWCVEKDHWDCWWWGTGGGK(Biotin-JJ)-NH2 [P31-XB]
- specific binding of peptide-125I-streptavidin complex (KDR-mock) (KDR/VEGF complex): Only the complex containing P30-XB showed specific binding

Compound: CC[C@H](C)[C@H](NC(=O)[C@H](Cc1c[nH]c2ccccc12)NC(=O)[C@H](Cc1ccc(O)cc1)NC(=O)[C@H](CC(=O)O)NC(=O)[C@H](CC(=O)O)NC(=O)CNC(=O)CNC(=O)[C@H](Cc1ccccc1)NC(=O)[C@H](CCCNC(=N)N)NC(=O)[C@@H]1CCCN1C(=O)[C@H](Cc1ccccc1)NC(=O)[C@H](C)NC(=O)[C@H](CCC(N)=O)NC(=O)[C@H](C)NC(C)=O)C(=O)N[C@@H](CCC(N)=O)C(=O)N[C@@H](CCC(N)=O)C(=O)N[C@@H](Cc1ccc(O)cc1)C(=O)N[C@@H](CC(C)C)C(=O)N[C@@H](CCCNC(=N)N)C(=O)N[C@@H](Cc1ccc(O)cc1)C(=O)N[C@H](C(=O)N[C@@H](CC(=O)O)C(=O)NCC(=O)NCC(=O)N[C@@H](CCCCNC(=O)CCOCCOCCOCCOCCNC(=O)CON=C(C)CCC(=O)NCCOCCOCCOCCOCCC(=O)NCCCC[C@H](NC(=O)CNC(=O)CNC(=O)[C@H](CC(=O)O)NC(=O)CNC(=O)[C@H](CC(=O)O)NC(=O)[C@H](CCC(=O)O)NC(=O)[C@H](CCC(=O)O)NC(=O)[C@H](Cc1c[nH]cn1)NC(=O)[C@H](Cc1ccc(O)cc1)NC(=O)[C@H](CC(C)C)NC(=O)[C@@H](NC(=O)[C@@H](NC(=O)[C@@H](NC(=O)[C@H](CCC(=O)O)NC(=O)[C@H](Cc1c[nH]c2ccccc12)NC(=O)[C@H](Cc1ccc(O)cc1)NC(=O)[C@H](C)NC(=O)[C@H](Cc1ccc(O)cc1)NC(=O)CNC(=O)[C@H](CCC(=O)O)NC(=O)[C@@H]1CCCN1C(=O)[C@H](CCC(=O)O)NC(=O)[C@H](CCC(N)=O)NC(=O)[C@H](C)NC(C)=O)C(C)C)[C@@H](C)CC)[C@@H](C)O)C(N)=O)C(N)=O)[C@@H](C)O [Tail-to-tail dimer]
- increase in affinity over the individual monomer (Soluble KDR receptor): greater than 60 fold
- kd,1 (Soluble KDR receptor): 0.00128 s⁻¹
- kon (Soluble KDR receptor; pH 7.65, read-out: ka,1): 115000 M⁻¹ s⁻¹

Compound: CC(C)c1cc(/C=C(\C#N)C(=O)NCCCc2ccccc2)cc(C(C)C)c1O [SU1498, (E)-3-(3,5-Diisopropyl-4-hydroxyphenyl)-2-[(3-phenyl-n-propyl)aminocarbonyl]acrylonitrile]
- VEGF-induced migration blocked ([3]; 3 micromolar): 47%

Compound: Ac-AGYGPCKNMPPWMCWHEGTGGGK(Biotin-JJ)-NH2 [P32-XB]
- specific binding of peptide-125I-streptavidin complex (KDR-mock) (KDR/VEGF complex): Only the complex containing P30-XB showed specific binding
